In patent publication US5635502A, “Mercaptoacetylamide bicyclic lactam derivatives useful as inhibitors of enkephalinase and ACE” (Merrell Pharmaceuticals Inc., priority 1995, dated 1997) one finds Km data, which are given here for one molecule.

In general, Km refers to the substrate concentration at which the rate is half of its maximum.

Where a SMILES comes first, the peptide text is derived from it. [ ]: non-standard residue; d: D form. The star is where a group is joined. Phe(4-NO2) = N[C@@H](Cc1ccc([N+](=O)[O-])cc1)C(=O)O; Dansyl = CN(C)c1cccc2c(S(=O)(=O)*)cccc12

The experiment addresses T1, Enkephalinase (endopeptidase-24.11) partially purified from rat kidney (Rattus norvegicus, UniProt P07861).
T1 construct: Enkephalinase is partially purified from rat kidney; from tissue; host or cells: rat kidney, microvilli fraction
T1 sequence (P07861 1-750): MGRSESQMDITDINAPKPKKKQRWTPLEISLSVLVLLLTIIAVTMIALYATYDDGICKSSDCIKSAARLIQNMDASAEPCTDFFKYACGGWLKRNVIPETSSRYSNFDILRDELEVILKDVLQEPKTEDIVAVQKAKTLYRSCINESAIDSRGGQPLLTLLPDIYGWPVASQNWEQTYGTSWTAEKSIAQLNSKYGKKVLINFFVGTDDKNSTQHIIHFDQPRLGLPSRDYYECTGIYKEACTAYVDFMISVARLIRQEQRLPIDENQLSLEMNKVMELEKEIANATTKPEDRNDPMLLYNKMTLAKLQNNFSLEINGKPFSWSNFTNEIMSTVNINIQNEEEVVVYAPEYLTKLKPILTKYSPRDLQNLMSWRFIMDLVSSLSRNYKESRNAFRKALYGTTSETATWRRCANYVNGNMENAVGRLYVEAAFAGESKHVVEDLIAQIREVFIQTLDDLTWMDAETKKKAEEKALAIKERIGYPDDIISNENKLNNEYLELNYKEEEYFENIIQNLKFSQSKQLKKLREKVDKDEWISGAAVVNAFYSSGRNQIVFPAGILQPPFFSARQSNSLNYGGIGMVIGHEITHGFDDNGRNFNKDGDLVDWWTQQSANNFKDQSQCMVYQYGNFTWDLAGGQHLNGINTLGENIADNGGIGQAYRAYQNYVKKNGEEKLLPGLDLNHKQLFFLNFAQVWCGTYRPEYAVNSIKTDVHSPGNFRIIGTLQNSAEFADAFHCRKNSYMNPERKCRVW
As to the kind of experiment: Enkephalinase fluorometric assay with substrate dansyl-D-AlaGly(p-nitro)PheGly. The format is biochemical. The following applies: substrate of enkephalinase; 50 mM HEPES buffer pH 7.4, 25° C. The source says: Enkephalinase is partially purified from rat kidney. The enzyme is extracted from the microvilli fraction by using Triton X-100 according to the method of Malfroy and Schwartz [J. Biol. Chem. 259, 14365-14370 (1984)] or by using a proteolytic treatment according to the method of Almenoff and Orlowski [Biochem. 22, 590-599 (1983)]. The enzyme is further purified by anion exchange chromatography (Mono Q™ column, Pharmacia) using a Pharmacia FPLC system. The enzyme activity may be measured by the fluorometric methods of Florentin et al. [Anal. Biochem. 141, 62-69 (1984)] or of Almenoff and Orlowski [J. Neurochemistry 42, 151-157 (1984)]. The enzyme is assayed in 50 mM HEPES buffer (pH 7.4) in a 3.0 mL reaction volume containing 12 μM of the substrate dansyl-D-AlaGly(p-nitro)PheGly (Km =40 μM) at 25° C. The substrate (and inhibitor) is added from a concentrated stock solution in DMSO (up to 0.1 mL DMSO final volume). The enzyme in a small volume (approximately 0.1 μg of FPLC purified protein) is added to initiate the reaction and the rate of fluorescence increase is recorded continuously using a fluorometer (excitation at 339 nm, emission at 562 nm).

On to `C[C@@H](NS(=O)(=O)c1cccc2c(N(C)C)cccc12)C(=O)NCC(=O)N[C@@H](Cc1ccc([N+](=O)[O-])cc1)C(=O)NCC(=O)O` [dansyl-D-AlaGly(p-nitro)PheGly] (Dansyl-[dA]G[Phe(4-NO2)]G-OH), for which the Michaelis-Menten constant (Km) came to 40 µM.
